Data taken from ChEMBL document CHEMBL4402571, “Methylation of Daptomycin Leading to the Discovery of Kynomycin, a Cyclic Lipodepsipeptide Active against Resistant Pathogens” (J Med Chem, 2020).
In brackets after ≈: the same amount, converted by molar mass. Activity calls are given as the source filed them. No cut-off for these calls is given here.

Tests used:
Erythrocyte = test: Hemolytic activity against rat RBC at 320 ug/ml measured after 1 hr; assay type: ADME, cell-based
HEK293 [1] = test: Cytotoxicity against HEK293 cells assessed as reduction in cell viability at >= 20 mg/ml measured after 24 hrs by MTT assay; assay type: cell-based; conditions: human, hek293, 24 h
[2] = Aqueous solubility of the compound in 0.9% NaCl at >= 100 measured after 15 mins; assay type: physicochemical; conditions: buffer, 0.25 h
Staphylococcus aureus [3] = test: Bactericidal activity against Staphylococcus aureus ATCC 29213 assessed as reduction in bacterial load at 4 to 8 ug/ml preincubated for up to 24 hrs followed by subculturing on LB agar plate by time-kill assay; assay type: functional, organism-based
Staphylococcus aureus [4] = test: Bactericidal activity against Staphylococcus aureus ATCC 29213 assessed as reduction in bacterial load at 16 ug/ml preincubated for 24 hrs followed by subculturing on LB agar plate by time-kill assay; assay type: functional, organism-based
Enterococcus faecalis [5] = test: Bactericidal activity against Enterococcus faecalis ATCC 29212 assessed as reduction in bacterial load at 4 to 16 ug/ml preincubated for up to 24 hrs followed by subculturing on LB agar plate by time-kill assay; assay type: functional, organism-based
Staphylococcus aureus [6] = test: Antibacterial activity against methicillin-resistant Staphylococcus aureus ATCC 43300 infected in Galleria mellonella larvae assessed as increase in larvae survival at 50 mg/kg measured up to 72 hrs post-infection; assay type: functional, organism-based
Staphylococcus aureus [7] = test: Antibacterial activity against daptomycin-resistant Staphylococcus aureus SA11 infected in Galleria mellonella larvae assessed as increase in larvae survival at 50 mg/kg measured up to 72 hrs post-infection; assay type: functional, organism-based
Staphylococcus aureus [8] = test: Antibacterial activity against daptomycin-resistant Staphylococcus aureus SA11 infected in NIH mouse model of neutropenic thigh infection assessed reduction in bacterial level in thigh at 50 mg/kg, sc administered at 2 and 12 hrs post infection and measured at 48 to 60 hrs post-infection; assay type: functional, organism-based
Staphylococcus aureus [9] = test: Antibacterial activity against Staphylococcus aureus USA300 infected in Balb/c mouse model of sepsis assessed as bacterial eradication in kidney at 1.25 mg/kg, sc administered twice daily for 3 days starting from 1 hr post-infection followed by subculturing on LB agar plate and measured after overnight incubation; assay type: functional, organism-based
Enterococcus faecalis [10] = test: Antibacterial activity against daptomycin-resistant Enterococcus faecalis T1027 infected in NIH mouse model of neutropenic thigh infection assessed reduction in bacterial level in thigh at 50 mg/kg, sc administered at 2 and 12 hrs post infection and measured at 48 to 60 hrs post-infection; assay type: functional, organism-based
Staphylococcus aureus [11] = test: Antibacterial activity against Staphylococcus aureus ATCC 29213 at sub-MIC after 7 serial passages by broth microdilution method; assay type: functional, organism-based
Enterococcus faecalis [12] = test: Antibacterial activity against Enterococcus faecalis ATCC 29212 at sub-MIC after 7 serial passages by broth microdilution method; assay type: functional, organism-based
Staphylococcus aureus [13] = test: Induction of cell membrane integrity disruption in Staphylococcus aureus ATCC 29213 at 8 ug/ml measured after 0.5 to 2 hrs by SYTOX green staining based fluorescence assay; assay type: organism-based
Enterococcus faecalis [14] = test: Induction of cell membrane integrity disruption in Enterococcus faecalis ATCC 29212 at 8 to 32 ug/ml measured after 0.5 to 2 hrs by SYTOX green staining based fluorescence assay; assay type: organism-based
Enterococcus faecalis [15] = test: Induction of cell membrane integrity disruption in Enterococcus faecalis ATCC 29212 at 16 ug/ml measured after 1 hr by SYTOX green staining based confocal laser scanning microscopic analysis; assay type: organism-based
HEK293 [16] = test: Cytotoxicity against HEK293 cells assessed as reduction in cell viability at 40 mg/ml measured after 24 hrs by MTT assay; assay type: cell-based; conditions: human, hek293, 24 h
HEK293 [17] = test: Cytotoxicity against HEK293 cells assessed as reduction in cell viability at 80 mg/ml measured after 24 hrs by MTT assay; assay type: cell-based; conditions: human, hek293, 24 h
Enterococcus faecium [18] = test: Antibacterial activity against Enterococcus faecium ET60 by broth microdilution method; assay type: functional
Enterococcus faecalis [19] = test: Antibacterial activity against Streptococcus faecalis by broth microdilution method; assay type: functional
Enterococcus faecium [20] = test: Antibacterial activity against Enterococcus faecium ET6 by broth microdilution method; assay type: functional
Staphylococcus aureus [21] = test: Antibacterial activity against methicillin-resistant Staphylococcus aureus SA14 by broth microdilution method; assay type: functional
Staphylococcus aureus [22] = test: Antibacterial activity against methicillin-resistant Staphylococcus aureus SA11 by broth microdilution method; assay type: functional
Staphylococcus aureus [23] = test: Antibacterial activity against methicillin-resistant Staphylococcus aureus SA86 by broth microdilution method; assay type: functional
Staphylococcus aureus [24] = test: Antibacterial activity against methicillin-resistant Staphylococcus aureus SA88 by broth microdilution method; assay type: functional
Staphylococcus aureus [25] = test: Antibacterial activity against Staphylococcus aureus ATCC 29213 by broth microdilution method; assay type: functional
Enterococcus faecalis [26] = test: Antibacterial activity against Enterococcus faecalis ATCC 29212 by broth microdilution method; assay type: functional
Staphylococcus aureus [27] = test: Bactericidal activity against Staphylococcus aureus ATCC 29213 incubated prior to replating on agar plate measured after overnight incubation; assay type: functional
Enterococcus faecalis [28] = test: Bactericidal activity against Enterococcus faecalis ATCC 29212 incubated prior to replating on agar plate measured after overnight incubation; assay type: functional
Staphylococcus aureus [29] = test: Antibacterial activity against Staphylococcus aureus USA300 infected in Balb/c mouse model of sepsis assessed as mouse survival at 0.925 mg/kg, sc administered twice daily for 5 days starting from 1 hr post-infection relative to control; assay type: functional
Staphylococcus aureus [30] = test: Antibacterial activity against methicillin-resistant Staphylococcus aureus ATCC 33591 infected in iv dosed CD-1 ICR mouse administered as single dose measured after 7 days; assay type: functional; conditions: ATCC 33591, iv, 168 h
Staphylococcus aureus [31] = test: Antibacterial activity against methicillin-resistant Staphylococcus aureus 0114 infected in iv dosed CD-1 ICR mouse administered as single dose measured after 7 days; assay type: functional; conditions: Staphylococcus aureus, 0114, iv, 168 h
Enterococcus faecalis [32] = test: Antibacterial activity against Enterococcus faecalis ZS129 by broth microdilution method; assay type: functional
Enterococcus faecalis [33] = test: Antibacterial activity against Enterococcus faecalis T1027 by broth microdilution method; assay type: functional
Staphylococcus aureus [34] = test: Antibacterial activity against Staphylococcus aureus ATCC 29213 assessed as mutation prevention concentration measured after 72 hrs; assay type: functional; conditions: ATCC 29213, 72 h
Enterococcus faecalis [35] = test: Antibacterial activity against Enterococcus faecalis ATCC 29212 assessed as mutation prevention concentration measured after 72 hrs; assay type: functional; conditions: ATCC 29212, 72 h
Staphylococcus aureus [36] = test: Antibacterial activity against Staphylococcus aureus ATCC 29213 assessed as ratio of MIC after and before 1 serial passage at sub-MIC by broth microdilution method; assay type: functional
Staphylococcus aureus [37] = test: Antibacterial activity against Staphylococcus aureus ATCC 29213 assessed as ratio of MIC after and before 7 serial passages at sub-MIC by broth microdilution method; assay type: functional

SMILES: CCCCCCCCCC(=O)N[C@@H](Cc1c[nH]c2ccccc12)C(=O)N[C@H](CC(N)=O)C(=O)N[C@@H](CC(=O)O)C(=O)N[C@@H]1C(=O)NCC(=O)N[C@@H](CCCN)C(=O)N[C@@H](CC(=O)O)C(=O)N[C@H](C)C(=O)N[C@@H](CC(=O)O)C(=O)NCC(=O)N[C@H](CO)C(=O)N[C@@H]([C@@H](C)CC(=O)O)C(=O)N[C@@H](CC(=O)c2ccccc2N)C(=O)O[C@@H]1C [listing 1 of 2 here]
- Activity (Erythrocyte): Non-Toxic
- Activity (HEK293 [1]): Toxic
- solubility [2]: Soluble

SMILES: CCCCCCCCCC(=O)N[C@@H](Cc1c[nH]c2ccccc12)C(=O)N[C@@H](CC(N)=O)C(=O)N[C@@H](CC(=O)O)C(=O)N[C@@H]1C(=O)NCC(=O)N[C@@H](CCCN)C(=O)N[C@@H](CC(=O)O)C(=O)N[C@H](C)C(=O)N[C@@H](CC(=O)O)C(=O)NCC(=O)N[C@H](CO)C(=O)N[C@@H]([C@H](C)CC(=O)O)C(=O)N[C@@H](CC(=O)c2ccccc2NC)C(=O)O[C@@H]1C
- Activity (Staphylococcus aureus [3]): Active
- Activity (Staphylococcus aureus [4]): Active
- Activity (Enterococcus faecalis [5]): Active
- Activity (Staphylococcus aureus [6]): Active
- Activity (Staphylococcus aureus [7]): Active
- Activity (Staphylococcus aureus [8]): Active
- Activity (Staphylococcus aureus [9]): Active
- Activity (Enterococcus faecalis [10]): Active
- Activity (Staphylococcus aureus [11]): Active
- Activity (Enterococcus faecalis [12]): inactive
- Activity (Staphylococcus aureus [13]): Active
- Activity (Enterococcus faecalis [14]): Active
- Activity (Enterococcus faecalis [15]): Active

SMILES: CCCCCCCCCC(=O)N[C@@H](Cc1c[nH]c2ccccc12)C(=O)N[C@H](CC(N)=O)C(=O)N[C@@H](CC(=O)O)C(=O)N[C@@H]1C(=O)NCC(=O)N[C@@H](CCCN)C(=O)N[C@@H](CC(=O)O)C(=O)N[C@H](C)C(=O)N[C@@H](CC(=O)O)C(=O)NCC(=O)N[C@H](CO)C(=O)N[C@@H]([C@H](C)CC(=O)O)C(=O)N[C@@H](CC(=O)c2ccccc2NC)C(=O)O[C@@H]1C
- Activity (Erythrocyte): Non-Toxic
- Activity (HEK293 [16]): Non-Toxic
- Activity (HEK293 [17]): Toxic
- solubility [2]: Soluble

SMILES: CCCCCCCCCC(=O)N[C@@H](Cc1c[nH]c2ccccc12)C(=O)N[C@H](CC(N)=O)C(=O)N[C@@H](CC(=O)O)C(=O)N[C@@H]1C(=O)NCC(=O)N[C@@H](CCCN)C(=O)N[C@@H](CC(=O)O)C(=O)N[C@H](C)C(=O)N[C@@H](CC(=O)O)C(=O)NCC(=O)N[C@H](CO)C(=O)N[C@@H]([C@@H](C)CC(=O)O)C(=O)N[C@@H](CC(=O)c2ccccc2N)C(=O)O[C@@H]1C [listing 2 of 2 here]
- MIC (Enterococcus faecium [18]): 2 µg/mL (≈ 1.23 µM)
- MIC (Enterococcus faecalis [19]): 0.5 µg/mL (≈ 0.309 µM)
- MIC (Enterococcus faecium [20]): 4 µg/mL (≈ 2.47 µM)
- MIC (Staphylococcus aureus [21]): 0.5 µg/mL (≈ 0.309 µM)
- MIC (Staphylococcus aureus [22]): 2 µg/mL (≈ 1.23 µM)
- MIC (Staphylococcus aureus [23]): 0.5 µg/mL (≈ 0.309 µM)
- MIC (Staphylococcus aureus [24]): 0.5 µg/mL (≈ 0.309 µM)
- MIC (Staphylococcus aureus [25]): 0.5 µg/mL (≈ 0.309 µM)
- MIC (Enterococcus faecalis [26]): 4 µg/mL (≈ 2.47 µM)
- MBC (Staphylococcus aureus [27]): 0.25 µg/mL (≈ 0.154 µM)
- MBC (Enterococcus faecalis [28]): 16 µg/mL (≈ 9.87 µM)
- survival at 0.925 mg/kg (Staphylococcus aureus [29]): 50%
- ED50 (Staphylococcus aureus [30]): 2.14 mg/kg
- ED50 (Staphylococcus aureus [31]): 2.19 mg/kg
- MIC (Enterococcus faecalis [32]): 0.5 µg/mL (≈ 0.309 µM)
- MIC (Enterococcus faecalis [33]): 16 µg/mL (≈ 9.87 µM)
- MPC (Staphylococcus aureus [34]): 16 µg/mL
- MPC (Enterococcus faecalis [35]): 32 µg/mL
- Ratio (Staphylococcus aureus [36]): 2
- Ratio (Staphylococcus aureus [37]): 8
